{
  "source": "patent US11691972B2",
  "about": "“Compounds for targeted degradation of BRD9” (C4 Therapeutics, Inc., priority 2020, dated 2023)",
  "system": "HEPG2",
  "test": "HEPG2 viability",
  "format": "cell-based",
  "conditions": "HEPG2 cells",
  "data": [
    {"smiles": "COc1cc(-c2cn(C)c(=O)c(C)c2C)cc(OC)c1CN1CCC(N2CCN(c3ccc(NC4CCC(=O)NC4=O)cc3F)CC2)C(F)(F)C1", "note": "(stereo not shown) [Compound 172, 3-[4-[4-[1-[[2,6-dimethoxy-4-(1,4,5-trimethyl-6-oxo-3-pyridyl)phenyl]methyl]-3,3-difluoro-4-piperidyl]piperazin-1-yl]-3-fluoro-anilino]piperidine-2,6-dione]", "values": [
      {"measurement": "HEPG2 Viability", "result": ">9.99", "unit": "µM"}
    ]}
  ]
}
